In ChEMBL document CHEMBL4385639, “1,2,3-Triazole-containing hybrids as leads in medicinal chemistry: A recent overview” (Bioorg Med Chem, 2019):
pIC50, pKi: −log10 of the molar value. In brackets after ≈: the same amount, converted by molar mass.

Columns and labels:
MCF7 [1] = experiment: Cytotoxicity against human MCF7 cells incubated up to 48 hrs by MTT assay; type: functional, cell-based; details: MCF7, 48 h
[2] = system: Mycobacterium tuberculosis; experiment: Antitubercular activity against Mycobacterium tuberculosis H37Rv after 7 days by MABA; type: functional; details: 168 h
[3] = Inhibition of Saccharomyces cerevisiae alpha-glucosidase using p-nitrophenyl-alpha-D-glucopyranoside as substrate preincubated for 10 mins followed by substrate addition and measured after 20 mins by spectrophotometric analysis
Urease = Urease (Canavalia ensiformis, UniProt P07374); experiment: Inhibition of jack bean urease assessed as reduction in ammonia production by Berthelot colorimetric method
Urease, sequence (P07374 whole entry, the tested form may be a part): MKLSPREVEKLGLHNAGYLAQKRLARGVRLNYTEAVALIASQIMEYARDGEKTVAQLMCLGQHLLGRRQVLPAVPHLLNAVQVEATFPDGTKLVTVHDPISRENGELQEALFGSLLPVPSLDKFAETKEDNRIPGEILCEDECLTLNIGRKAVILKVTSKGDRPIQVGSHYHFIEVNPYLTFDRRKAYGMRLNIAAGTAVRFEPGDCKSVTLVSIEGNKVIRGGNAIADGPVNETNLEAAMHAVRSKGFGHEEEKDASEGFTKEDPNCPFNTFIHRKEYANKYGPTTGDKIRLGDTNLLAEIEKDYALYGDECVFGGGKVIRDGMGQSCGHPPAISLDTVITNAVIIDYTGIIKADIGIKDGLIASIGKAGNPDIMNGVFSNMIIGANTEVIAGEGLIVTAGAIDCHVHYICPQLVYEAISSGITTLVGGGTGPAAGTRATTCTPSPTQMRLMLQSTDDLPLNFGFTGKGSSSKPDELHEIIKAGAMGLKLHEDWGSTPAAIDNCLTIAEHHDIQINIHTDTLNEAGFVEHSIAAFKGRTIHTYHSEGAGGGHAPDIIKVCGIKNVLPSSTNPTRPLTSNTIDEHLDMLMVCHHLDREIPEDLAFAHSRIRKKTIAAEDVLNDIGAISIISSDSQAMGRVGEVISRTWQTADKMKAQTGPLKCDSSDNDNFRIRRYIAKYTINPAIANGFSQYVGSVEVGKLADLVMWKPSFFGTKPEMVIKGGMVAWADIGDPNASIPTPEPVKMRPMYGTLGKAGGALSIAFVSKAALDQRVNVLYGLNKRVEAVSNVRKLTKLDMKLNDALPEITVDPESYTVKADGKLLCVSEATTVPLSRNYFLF

Staphylococcus aureus = experiment: Antimicrobial activity against Staphylococcus aureus NCIM 5022 incubated for 36 hrs by agar well diffusion method; type: functional
Escherichia coli [4] = experiment: Antimicrobial activity against Escherichia coli NCIM 5051 incubated for 36 hrs by agar well diffusion method; type: functional
DU-145 = experiment: Cytotoxicity against human DU145 cells incubated for 48 hrs by MTT assay; type: functional, cell-based; details: DU-145, 48 h
A549 [5] = experiment: Cytotoxicity against human A549 cells after 48 hrs by MTT assay; type: functional, cell-based; details: A549, 48 h
[6] = Inhibition of quorum sensing system in Pseudomonas aeruginosa MH602 PlasB::gfp-ASV at 250 uM measured every 30 minutes over 20 hrs by fluorescence analysis relative to control
U-937 [7] = experiment: Antiinflammatory activity in human U937 cells assessed as inhibition of LPS-induced TNF-alpha production incubated for 24 hrs by ELISA; type: functional, cell-based; details: U-937, 24 h
U-937 [8] = experiment: Antiinflammatory activity in human U937 cells assessed as inhibition of LPS-induced TNF-alpha production at 10 uM incubated for 24 hrs by ELISA relative to control; type: functional; details: U-937, 24 h
[9] = biological target: Dihydroorotate dehydrogenase (quinone), mitochondrial (Homo sapiens, UniProt Q02127); experiment: Inhibition of human recombinant N-terminal His-tagged DHODH (31 to 395 residues) expressed in Escherichia coli using dihydroorotate substrate preincubated for 5 mins followed by substrate addition by DCIP assay
Dihydroorotate dehydrogenase (quinone), mitochondrial, sequence (Q02127 whole entry, the tested form may be a part): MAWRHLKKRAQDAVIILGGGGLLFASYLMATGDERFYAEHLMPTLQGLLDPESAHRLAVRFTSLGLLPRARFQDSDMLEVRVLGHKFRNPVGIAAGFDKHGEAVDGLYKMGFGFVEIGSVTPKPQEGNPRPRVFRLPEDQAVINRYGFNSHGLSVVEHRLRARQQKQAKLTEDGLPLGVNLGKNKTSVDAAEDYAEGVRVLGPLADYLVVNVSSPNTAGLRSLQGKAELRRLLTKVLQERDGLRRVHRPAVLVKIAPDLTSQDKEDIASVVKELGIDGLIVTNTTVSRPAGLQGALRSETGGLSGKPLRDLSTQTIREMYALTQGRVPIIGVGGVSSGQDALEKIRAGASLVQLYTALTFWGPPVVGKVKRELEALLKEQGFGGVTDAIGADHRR

Candida albicans = experiment: Antifungal activity against Candida albicans MTCC 183 after 24 hrs by serial dilution method; type: functional; details: MTCC 183, 24 h
Bacillus subtilis = experiment: Antibacterial activity against Bacillus subtilis MTCC 441 after 24 hrs by serial dilution method; type: functional; details: MTCC 441, 24 h
Pseudomonas aeruginosa = experiment: Antibacterial activity against Pseudomonas aeruginosa MTCC 424 after 24 hrs by serial dilution method; type: functional; details: MTCC 424, 24 h
Escherichia coli [10] = experiment: Antibacterial activity against Escherichia coli MTCC 1652 after 24 hrs by serial dilution method; type: functional; details: MTCC 1652, 24 h
[11] = system: Staphylococcus epidermidis; experiment: Antibacterial activity against Staphylococcus epidermidis MTCC 6880 incubated for 24 hrs by serial dilution method; type: functional; details: MTCC 6880, 24 h
MCF7 [12] = experiment: cells; details: Homo sapiens, MCF7, 72 h
Description: Antiproliferative activity against human MCF7 cells incubated for 72 hrs by MTT assay

Leishmania major = experiment: Antileishmanial activity against Leishmania major 5-ASKH promastigotes incubated for 72 hrs by hemocytometer based cell counting method; type: functional, organism-based
SNB-19 [13] = experiment: Cytotoxicity against human SNB19 cells after 72 hrs by WST-1 assay; type: functional, cell-based; details: SNB-19, 72 h
SNB-19 [14] = experiment: Potency index, ratio of cisplatin IC50 to compound IC50 for cytotoxicity against human SNB19 cells; type: functional
Escherichia coli [15] = experiment: Antimicrobial activity against Escherichia coli […]; type: functional
A549 [16] = experiment: Induction of cell cycle arrest in human A549 cells assessed as accumulation at subG1 phase by flow cytometry relative to control; type: functional
A549 [17] = experiment: Cytotoxicity against human A549 cells incubated for 24 hrs by MTT assay; type: functional, cell-based; details: A549, 24 h
HeLa [18] = experiment: Induction of cell cycle arrest in human HeLa cells assessed as accumulation at subG1 phase by flow cytometry relative to control; type: functional
HeLa [19] = experiment: Cytotoxicity against human HeLa cells incubated for 24 hrs by MTT assay; type: functional, cell-based
HepG2 [20] = experiment: Cytotoxicity against human HepG2 cells incubated for 72 hrs by MTT assay; type: functional, cell-based; details: HepG2, 72 h
MCF7 [21] = experiment: Potency index, ratio of foretinib IC50 to compound IC50 for antiproliferative activity against human MCF7 cells; type: functional
A549 [22] = experiment: Cytotoxicity against human A549 cells incubated for 72 hrs by MTT assay; type: functional, cell-based; details: A549, 72 h
HepG2 [23] = experiment: Potency index, ratio of foretinib IC50 to compound IC50 for antiproliferative activity against human HepG2 cells; type: functional
[24] = biological target: Hepatocyte growth factor receptor (Homo sapiens, UniProt P08581); experiment: Inhibition of cMET (unknown origin) using FAM-labeled peptide as substrate pre-incubated for 10 mins followed by substrate addition by mobility shift assay
A549 [25] = experiment: Potency index, ratio of foretinib IC50 to compound IC50 for antiproliferative activity against human A549 cells; type: functional
Alpha glucosidase = Alpha glucosidase (Homo sapiens, UniProt O43451+P10253+P14410+Q2M2H8); experiment: Inhibition of alpha-glucosidase (unknown origin) using p-nitrophenyl-alpha-D-glucopyranoside as substrate pre-incubated for 15 mins followed by substrate addition and measured for 20 mins by spectrophotometric analysis; type: protein assay
HT-29 [26] = experiment: Cytotoxicity against human HT-29 cells after 72 hrs by SRB assay; type: functional, cell-based; details: HT-29, 72 h
HT-29 [27] = experiment: Potency index, ratio of cisplatin IC50 to compound IC50 for cytotoxicity against human HT-29 cells; type: functional
[28] = biological target: Serine/threonine-protein kinase PLK1 (Homo sapiens, UniProt P53350); experiment: Inhibition of PLK1 PBD (unknown origin) using GPMQSpTPLNG-OH as fluorescent probe incubated for 30 mins by fluorescence polarization assay
Serine/threonine-protein kinase PLK1, sequence (P53350 whole entry): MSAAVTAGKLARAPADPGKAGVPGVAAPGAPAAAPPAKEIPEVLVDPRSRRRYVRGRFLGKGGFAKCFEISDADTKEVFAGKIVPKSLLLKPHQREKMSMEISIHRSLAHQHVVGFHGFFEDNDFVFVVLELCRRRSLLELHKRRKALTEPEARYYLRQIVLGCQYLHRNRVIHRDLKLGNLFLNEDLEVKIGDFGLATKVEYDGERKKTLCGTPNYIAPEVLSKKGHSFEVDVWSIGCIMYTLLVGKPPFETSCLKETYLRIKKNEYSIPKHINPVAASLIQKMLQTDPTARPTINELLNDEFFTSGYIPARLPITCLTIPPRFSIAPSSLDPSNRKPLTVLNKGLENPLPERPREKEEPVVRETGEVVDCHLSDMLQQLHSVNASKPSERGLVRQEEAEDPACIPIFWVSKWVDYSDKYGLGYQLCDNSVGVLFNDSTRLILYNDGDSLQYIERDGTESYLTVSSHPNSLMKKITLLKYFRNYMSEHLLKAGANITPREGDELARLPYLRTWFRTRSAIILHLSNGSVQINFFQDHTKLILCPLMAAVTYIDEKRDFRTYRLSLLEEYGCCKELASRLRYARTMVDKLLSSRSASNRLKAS

[29] = biological target: Polyunsaturated fatty acid 5-lipoxygenase (Homo sapiens, UniProt P09917); experiment: Inhibition of 5-lipoxygenase (unknown origin) incubated for 10 mins
Polyunsaturated fatty acid 5-lipoxygenase, sequence (P09917 whole entry): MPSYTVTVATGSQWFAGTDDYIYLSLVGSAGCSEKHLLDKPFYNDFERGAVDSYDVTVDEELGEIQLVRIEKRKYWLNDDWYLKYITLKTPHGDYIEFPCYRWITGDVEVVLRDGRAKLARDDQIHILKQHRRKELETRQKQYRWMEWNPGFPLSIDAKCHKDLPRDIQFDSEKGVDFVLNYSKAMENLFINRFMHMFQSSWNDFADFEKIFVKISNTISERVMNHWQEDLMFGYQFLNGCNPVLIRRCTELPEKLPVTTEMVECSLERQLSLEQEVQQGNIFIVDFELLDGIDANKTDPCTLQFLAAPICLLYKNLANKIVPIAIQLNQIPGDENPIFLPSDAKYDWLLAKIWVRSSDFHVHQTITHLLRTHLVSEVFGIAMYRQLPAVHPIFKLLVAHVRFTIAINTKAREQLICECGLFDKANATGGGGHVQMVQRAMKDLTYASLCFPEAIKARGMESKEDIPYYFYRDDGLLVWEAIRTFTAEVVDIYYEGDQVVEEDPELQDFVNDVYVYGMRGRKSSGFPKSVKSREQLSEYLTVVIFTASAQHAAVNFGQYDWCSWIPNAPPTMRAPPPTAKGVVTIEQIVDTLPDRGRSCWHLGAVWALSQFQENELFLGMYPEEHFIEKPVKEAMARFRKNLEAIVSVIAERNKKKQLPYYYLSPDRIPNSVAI

Cholinesterase [30] = biological target: Cholinesterase (Homo sapiens, UniProt P06276); experiment: Inhibition of BChE (unknown origin) using butyrylthiocholine iodide as substrate preincubated for 15 mins followed by substrate addition and measured after 15 mins
Cholinesterase (Homo sapiens, UniProt P06276), sequence (P06276 whole entry): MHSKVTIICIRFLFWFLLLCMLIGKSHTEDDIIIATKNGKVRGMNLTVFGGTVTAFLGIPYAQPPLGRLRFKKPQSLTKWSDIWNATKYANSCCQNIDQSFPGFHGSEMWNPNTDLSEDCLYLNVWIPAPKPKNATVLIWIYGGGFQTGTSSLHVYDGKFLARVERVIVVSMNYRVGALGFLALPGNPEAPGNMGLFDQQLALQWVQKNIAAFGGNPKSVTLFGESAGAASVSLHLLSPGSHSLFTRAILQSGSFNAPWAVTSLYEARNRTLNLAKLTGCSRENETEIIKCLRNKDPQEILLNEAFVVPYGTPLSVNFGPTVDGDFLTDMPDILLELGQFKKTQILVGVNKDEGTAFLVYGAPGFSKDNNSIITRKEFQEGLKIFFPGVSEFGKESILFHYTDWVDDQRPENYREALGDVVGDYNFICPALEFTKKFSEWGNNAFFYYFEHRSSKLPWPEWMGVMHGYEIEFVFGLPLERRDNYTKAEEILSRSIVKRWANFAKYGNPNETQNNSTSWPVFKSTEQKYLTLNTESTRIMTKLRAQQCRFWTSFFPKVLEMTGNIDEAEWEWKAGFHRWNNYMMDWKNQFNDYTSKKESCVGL

[31] = biological target: Tyrosinase (Homo sapiens) (UniProt P14679); experiment: Inhibition of tyrosinase (unknown origin) using L-DOPA as substrate preincubated with substrate for 2 mins followed by enzyme addition and measured after 10 min by spectrophotometric method relative to control
Tyrosinase (Homo sapiens), sequence (P14679 whole entry): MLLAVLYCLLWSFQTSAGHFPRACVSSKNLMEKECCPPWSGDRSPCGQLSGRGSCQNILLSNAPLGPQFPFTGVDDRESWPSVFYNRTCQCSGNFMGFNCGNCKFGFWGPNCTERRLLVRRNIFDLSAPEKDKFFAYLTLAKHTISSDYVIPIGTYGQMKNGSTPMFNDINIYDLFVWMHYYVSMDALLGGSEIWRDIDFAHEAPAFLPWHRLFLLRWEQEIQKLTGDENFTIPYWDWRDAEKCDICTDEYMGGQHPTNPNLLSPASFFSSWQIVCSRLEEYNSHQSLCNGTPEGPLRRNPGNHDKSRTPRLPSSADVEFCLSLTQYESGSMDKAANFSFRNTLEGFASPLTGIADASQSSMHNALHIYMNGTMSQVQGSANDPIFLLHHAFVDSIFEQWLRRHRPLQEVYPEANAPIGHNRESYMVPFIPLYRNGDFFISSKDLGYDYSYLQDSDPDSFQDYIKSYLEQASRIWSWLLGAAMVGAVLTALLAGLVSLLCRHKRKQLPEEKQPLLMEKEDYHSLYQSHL

[32] = Antioxidant activity assessed as inhibition of DPPH radical generation; type: functional
[33] = biological target: Prostaglandin G/H synthase 2 (Homo sapiens, UniProt P35354); experiment: Inhibition of human COX2 using arachidonic acid as substrate pretreated for 5 mins followed by substrate addition and measured after 20 mins by colorimetric assay
Prostaglandin G/H synthase 2, sequence (P35354 whole entry): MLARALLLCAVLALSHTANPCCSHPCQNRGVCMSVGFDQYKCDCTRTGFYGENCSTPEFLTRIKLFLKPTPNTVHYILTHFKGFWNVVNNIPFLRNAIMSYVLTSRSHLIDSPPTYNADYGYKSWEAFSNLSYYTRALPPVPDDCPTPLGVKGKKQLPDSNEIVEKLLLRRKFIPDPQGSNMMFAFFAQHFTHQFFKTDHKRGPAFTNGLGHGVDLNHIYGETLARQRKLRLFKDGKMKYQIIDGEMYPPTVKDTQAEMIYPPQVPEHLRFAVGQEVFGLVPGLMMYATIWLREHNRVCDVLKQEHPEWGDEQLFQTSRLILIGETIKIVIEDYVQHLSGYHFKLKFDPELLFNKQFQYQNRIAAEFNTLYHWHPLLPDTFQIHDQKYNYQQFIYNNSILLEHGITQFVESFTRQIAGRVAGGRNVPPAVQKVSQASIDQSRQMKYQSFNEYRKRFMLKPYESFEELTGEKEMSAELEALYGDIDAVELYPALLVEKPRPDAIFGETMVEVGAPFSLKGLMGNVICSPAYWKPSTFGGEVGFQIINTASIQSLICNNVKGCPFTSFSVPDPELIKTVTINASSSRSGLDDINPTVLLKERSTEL

Rattus norvegicus = experiment: Anti-inflammatory activity against carrageenan-induced paw oedema in Wistar rat assessed as reduction in paw edema at 20 mg/kg administered 30 mins prior to carrageenan challenge measured at 3 hrs post carrageenan challenge by plethysmometric method relative to control; type: functional; parameters: scale not given: the % may be the effect or the level left
[34] = Inhibition of soyabean 5-lipoxygenase using arachidonic acid as substrate incubated for 5 mins by spectrophotometric method; parameters: species or system Glycine max
Cholinesterase [35] = biological target: Cholinesterase (Equus caballus, UniProt P81908); experiment: Inhibition of equine serum BuChE using butyrylthiocholine iodide as substrate preincubated for 3 mins followed by substrate addition by Ellman's method
Cholinesterase (Equus caballus, UniProt P81908), sequence (P81908 whole entry): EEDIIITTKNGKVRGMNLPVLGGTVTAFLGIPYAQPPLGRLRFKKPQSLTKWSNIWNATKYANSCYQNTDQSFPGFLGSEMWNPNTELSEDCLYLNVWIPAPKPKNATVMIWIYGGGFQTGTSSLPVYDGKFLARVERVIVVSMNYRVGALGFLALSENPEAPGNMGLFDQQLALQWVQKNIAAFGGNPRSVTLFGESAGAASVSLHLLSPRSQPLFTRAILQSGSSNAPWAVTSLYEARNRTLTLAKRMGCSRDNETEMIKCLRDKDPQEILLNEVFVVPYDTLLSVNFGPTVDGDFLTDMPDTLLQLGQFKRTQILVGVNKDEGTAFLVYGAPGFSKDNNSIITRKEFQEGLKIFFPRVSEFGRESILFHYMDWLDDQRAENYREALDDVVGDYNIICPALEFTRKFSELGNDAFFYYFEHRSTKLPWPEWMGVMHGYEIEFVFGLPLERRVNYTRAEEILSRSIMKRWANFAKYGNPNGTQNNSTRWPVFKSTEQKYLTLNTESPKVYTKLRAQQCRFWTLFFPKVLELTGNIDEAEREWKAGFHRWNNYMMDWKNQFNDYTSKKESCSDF

Acetylcholinesterase = Acetylcholinesterase (Electrophorus electricus, UniProt O42275); experiment: Inhibition of electric eel AChE using acetylthiocholine iodide as substrate preincubated for 3 mins followed by substrate addition by Ellman's method

O=C1C(=O)N(CCn2cc(COCCOc3ccc(/C(=C(/CCCl)c4ccccc4)c4ccccc4)cc3)nn2)c2c(Br)cc(Br)cc21
pIC50 (MCF7 [1]): 5.81

COc1ccc(-n2nnc3c2CCC2(C=Cc4cc(Cl)ccc4O2)C3)cc1 (centres undefined)
MIC [2]: 4.11 µM (≈ 1.56 µg/mL)

O=c1c2ccccc2nc(SCc2cn(Cc3ccc(Br)cc3)nn2)n1CCc1ccccc1
pKi [3]: 3.93

COc1ccc(NC(=O)NCc2cn(Cc3ccc(Cl)cc3Cl)nn2)cc1
pIC50 (Urease): 4.64

Fc1cccc(Cl)c1Cn1nncc1CN1CCN(C(c2ccccc2)c2ccccc2)CC1
diameter of the inhibition zone (DIZ) (Staphylococcus aureus): 16.33 mm | diameter of the inhibition zone (DIZ) (Escherichia coli [4]): 15.63 mm

COc1cc(Cn2cc(C(=O)c3c(-c4ccccc4)nc4ccccn34)nn2)cc(OC)c1OC
pIC50 (DU-145): 5.98 | pIC50 (A549 [5]): 6.29

CCc1ccc(-n2cc(CCC(=O)Nc3c(-c4ccccc4)[nH]c4ccccc34)nn2)cc1
inhibition [6]: 60.8%

Cc1cc(O)cc2oc(=O)cc(CNCc3cn(-c4ccc(Br)cc4)nn3)c12
pIC50 (U-937 [7]): 5.10 | inhibition at 10 µM (U-937 [8]): 62%

NC(=O)c1cc(F)c(F)cc1-n1cc(COc2ccc(C(F)(F)F)cc2)nn1
pIC50 [9]: 5.68

O=C(Cn1cc(CSc2ccc(Br)cc2)nn1)OCc1ccc(Cl)cc1
MIC (Candida albicans): 15.3 µM (≈ 6.93 µg/mL) | MIC (Bacillus subtilis): 15.3 µM (≈ 6.93 µg/mL) | MIC (Pseudomonas aeruginosa): 15.3 µM (≈ 6.93 µg/mL) | MIC (Escherichia coli [10]): 15.3 µM (≈ 6.93 µg/mL) | MIC [11]: 15.3 µM (≈ 6.93 µg/mL)

Clc1ccc(Cn2nncc2CN2CCN(C(c3ccccc3)c3ccccc3)CC2)c(Cl)c1
diameter of the inhibition zone (DIZ) (Staphylococcus aureus): 16.45 mm | diameter of the inhibition zone (DIZ) (Escherichia coli [4]): 16.15 mm

COc1c(O)cc(O)c2c(=O)cc(-c3ccccc3)oc12 [WOGONIN]
pIC50 (MCF7 [12]): 4.52

COC(=O)[C@H](CC(C)C)NC(=O)c1cn(-c2ccccc2N)nn1
IC50 (Leishmania major): 11 µg/mL (≈ 33.2 µM)

C=C(C)[C@@H]1CC[C@]2(COC(=O)c3cn([C@H]4C[C@H](n5cc(C)c(=O)[nH]c5=O)O[C@@H]4CO)nn3)CC[C@]3(C)[C@H](CC[C@@H]4[C@@]5(C)CCC(=O)C(C)(C)[C@@H]5CC[C@]43C)[C@@H]12
pIC50 (SNB-19 [13]): 6.77 | Ratio IC50 (SNB-19 [14]): 5

Cc1cc(O)c(C(=O)/C=C/c2ccc(OCc3cn(Cc4ccc(Br)cc4)nn3)cc2)c(=O)o1
MIC (Escherichia coli [15]): 3 µM (≈ 1.57 µg/mL)

COc1cc(-c2cc(COc3ccccc3-c3nc4ccccc4o3)on2)ccc1OCc1cn(CC(=O)NCc2ccco2)nn1
Activity (A549 [16]): 49.43% | pIC50 (A549 [17]): 5.59 | Activity (HeLa [18]): 42.58% | pIC50 (HeLa [19]): 5.75

O=C(Nc1ccc(Oc2ncnc3ccsc23)c(F)c1)c1nnn(-c2ccc(Cl)cc2)c1C(F)(F)F
pIC50 (HepG2 [20]): 6.30 | Ratio IC50 (MCF7 [21]): 3.7 - 5.4 | pIC50 (A549 [22]): 6.05 | Ratio IC50 (HepG2 [23]): 3.7 - 5.4 | pIC50 (MCF7 [12]): 5.96 | pIC50 [24]: 7.80 | Ratio IC50 (A549 [25]): 3.7 - 5.4

COc1ccc(-c2ccc(O[C@H](C)Cn3cc(-c4ccc(C(F)(F)F)cc4)nn3)c(OC)c2)cc1
IC50 (Alpha glucosidase): 14.2 µM

Cc1ccc2c(c1)C=CC1(CCc3c(nnn3-c3ccccc3)C1)O2 (centres undefined)
MIC [2]: 4.74 µM (≈ 1.56 µg/mL)

C=C[C@H]1CN2CC[C@H]1C[C@H]2[C@H](O)c1cc(-c2cn(-c3ccc(O)cc3)nn2)nc2ccc(OC)cc12
pIC50 (HT-29 [26]): 5.92 | Ratio IC50 (HT-29 [27]): 8

O=C(Cn1cc(CSc2ccc(Cl)cc2)nn1)OCc1ccc(Cl)cc1
MIC (Candida albicans): 13.8 µM (≈ 5.63 µg/mL) | MIC (Pseudomonas aeruginosa): 13.8 µM (≈ 5.63 µg/mL) | MIC (Escherichia coli [10]): 13.8 µM (≈ 5.63 µg/mL) | MIC [11]: 13.8 µM (≈ 5.63 µg/mL)

COc1ccc(-n2nnc3c2CCC2(C=Cc4cc(C)ccc4O2)C3)cc1 (centres undefined)
MIC [2]: 4.34 µM (≈ 1.56 µg/mL)

O=C(CCNC(=O)c1ccc(CO)cc1)N[C@@H](Cc1cnnn1CCCCCCCCc1ccccc1)C(=O)NCc1cnnn1CCP(=O)(O)O
pIC50 [28]: 5.47

O=c1oc2ccccc2c2nn(Cc3cn(-c4c(Cl)cc(Cl)cc4Cl)nn3)cc12
pIC50 [29]: 4.62 | pIC50 (Cholinesterase [30]): 4.54 | inhibition [31]: 58%

Cn1c(=O)c2c3cc(F)ccc3c(=O)n(Cc3cn(Cc4ccccc4)nn3)c2n(C)c1=O
pIC50 [32]: 5.22

CCc1ccc(-n2cc(CNC(=O)C(=O)c3cc4ccccc4[nH]3)nn2)cc1
pIC50 (DU-145): 5.09 | pIC50 [33]: 6.92 | Activity (Rattus norvegicus): 76.9% | pIC50 [34]: 5.11

O=C1CCC(N2C(=O)c3cccc(NC(=O)CCCCCCCn4cc(COc5c(O)cc(O)c6c(=O)cc(-c7ccccc7)oc56)nn4)c3C2=O)C(=O)N1 (centres undefined)
pIC50 (MCF7 [12]): 4.77

O=c1oc2ccccc2c2c1cnn2Cc1cn(-c2c(Cl)cc(Cl)cc2Cl)nn1
pIC50 [29]: 4.68 | pIC50 (Cholinesterase [30]): 4.74 | inhibition [31]: 72%

O=C(CCCCC1CCSS1)NCc1cn(CCCCOc2ccc(-c3cc4c(ccc5ccccc54)oc3=O)cc2)nn1 (centres undefined)
pIC50 (Cholinesterase [35]): 4.16 | pIC50 (Acetylcholinesterase): 5.14
